Measured values as given in ChEMBL document CHEMBL1127764, “An efficient method for the synthesis of guanidino prodrugs” (Bioorg Med Chem Lett, 1994).

Tests used:
Caco-2 = assay: Permeability coefficient in Caco-2 cell line monolayers was tested; assay type: functional, Homo sapiens
Rattus norvegicus = species on record: Rattus norvegicus; assay: Half-life in vitro in rat plasma; No detectable degradation over 2 hr; no detectable degradation over 2 hours; assay type: ADME
[1] = Half-life in vitro in rat plasma; assay type: ADME
[2] = Half-life in vitro in pig liver; assay type: ADME, tissue-based, Sus scrofa

SMILES | Pc (Caco-2) [×10⁻⁶ cm/s] | T1/2 (Rattus norvegicus) | half-life [1] [min] | half-life [2] [min]
N=C(N)NCc1ccccc1 | 2.24 | Stable |  | 
CC(C)(C)C(=O)OCOC(=O)/N=C(/NCc1ccccc1)NC(=O)OCOC(=O)C(C)(C)C | 3.69 |  | 1.12 | 
NC(=O)CCCCCCN=C(N)N |  |  |  | < 5
O=C(/N=C(/NCc1ccccc1)NC(=O)OCc1ccccc1)OCc1ccccc1 | 0.51 |  | 12.5 | 
O=C(Cc1ccccc1)OCOC(=O)/N=C(/NCc1ccccc1)NC(=O)OCOC(=O)Cc1ccccc1 | 8.55 |  | 0.13 | 
O=C(/N=C(/NCc1ccccc1)NC(=O)Oc1ccccc1)Oc1ccccc1 | 6.45 |  | 0.46 | 
